From PMC7099630 (Bioanalysis, 2016)

What was measured:
[1] = Stock solution stability of chloroquine; assay type: physicochemical; settings: 40 days at -20°C vs freshly prepared, read-out: Solution stability (40 day), Recovery (mean ± SD, %)
[2] = PK study in Wuzhishan miniature pigs after a single oral dose, plasma by HILIC-MS/MS; assay type: in vivo, Wuzhishan miniature pig; settings: average, single oral dose 0.2 g
Description: Two ordinary grade, healthy, Wuzhishan miniature pig (6–8 months old, 7–9 kg) were purchased from Pearl Laboratory Animal Sci. & Tech. Co., Ltd (Dongguan, China) and maintained on standard food and water. The pigs were housed in individual cages and identified by ear tags. […] Blood samples (1.5 ml) were collected in heparinized tubes via the precaval or pelvic vein before medication and 0.5, 1, 2, 4, 6, 8, 12, 24, 36, 48, 72, 96 and 120 h after drug administration. All blood samples were immediately centrifuged at 2000 × g for 15 min (Centrifuge 5418, Eppendorf) and then stored at −70°C before analysis. The maximum plasma concentration (Cmax) and time of occurrence (tmax) were read directly from the concentration-time curve. Other PK parameters were calculated with DAS 3.2.4 software, using a noncompartmental model.

[3] = Stability of chloroquine in miniature pig plasma QC samples under different storage conditions; assay type: in vitro ADME; settings: miniature pig plasma (spiked QC samples), plasma QC standing prior to preparation, read-out: Benchtop stability (8 h), Recovery (mean ± SD, %)
[4] = as above; assay type: in vitro ADME
Description: Mimic pig plasma samples at LQC and HQC levels were analyzed along with freshly spiked calibration standards to obtain calculated concentrations.
Benchtop stability was evaluated by allowing QC samples to stand for 6 h prior to preparation. Unextracted QC samples were stored at -20°C for 40 days before extraction to test long-term stability. To analyze freeze–thaw stability, QC samples were stored at -20°C and then allowed to thaw to room temperature for three cycles. Processed QC samples were allowed to stand in the autosampler for 24 h before analysis to determine whether an occasional delay in injection, or reinjection of extracted samples, would lead to degradation.

[5] = healthy miniature pigs, noncompartmental model

CCN(CC)CCCC(C)Nc1ccnc2cc(Cl)ccc12 (stereo not shown) [chloroquine, N’-(7-chloro-4-quinolyl)-N,N-diethyl-pentane-1,4-diamine]
recovery at 40 day, 75 ng/ml ([1]; HQC (75 ng/ml)): 103 ± 2.46% | recovery at 40 day, 3 ng/ml ([1]; LQC (3 ng/ml)): 102 ± 6.75% | AUC(0-inf) ([2]; Wuzhishan miniature pig, pig, plasma, healthy miniature pigs, noncompartmental model): 380 ng·h/mL | half-life ([2]; Wuzhishan miniature pig, pig, plasma, healthy miniature pigs, noncompartmental model, read-out: elimination t1/2 (converted)): 16.9 h | Cmax ([2]; Wuzhishan miniature pig, pig, healthy miniature pigs (two animals), plasma): 15 ng/mL | Tmax ([2]; Wuzhishan miniature pig, pig, healthy miniature pigs, plasma): 3 h | CL/F [2, 5]: 54.15 L/h | V/F [2, 5]: 1543.82 L | recovery at 8 h, 75 ng/ml ([3]; HQC (75 ng/ml)): 103.5 ± 1% | recovery at 8 h, 3 ng/ml ([3]; LQC (3 ng/ml)): 104 ± 1.33% | stability of prepared samples after storage in the autosampler ([4]; 24 h in autosampler): stable | time stable during bench top preparation ([4]; miniature pig plasma): at least 6 h | time stable on storage at −20°C ([4]; miniature pig plasma): at least 40 days | recovery at 75 ng/ml ([4]; miniature pig, miniature pig plasma (spiked QC samples), HQC (75 ng/ml), -20°C to room temperature, three cycles, read-out: Freeze–thaw stability (3 cycles), Recovery (mean ± SD, %)): 106 ± 1.07% | recovery at 40 day, 75 ng/ml ([4]; miniature pig, miniature pig plasma (spiked QC samples), HQC (75 ng/ml), unextracted plasma QC stored at -20°C for 40 days, read-out: Long-term stability (40 day), Recovery (mean ± SD, %)): 104.3 ± 1.04% | recovery at 3 ng/ml ([4]; miniature pig, miniature pig plasma (spiked QC samples), LQC (3 ng/ml), -20°C to room temperature, three cycles, read-out: Freeze–thaw stability (3 cycles), Recovery (mean ± SD, %)): 106 ± 9.74% | recovery at 40 day, 3 ng/ml ([4]; miniature pig, miniature pig plasma (spiked QC samples), LQC (3 ng/ml), unextracted plasma QC stored at -20°C for 40 days, read-out: Long-term stability (40 day), Recovery (mean ± SD, %)): 106 ± 3.35% | recovery at 24 h, 75 ng/ml ([4]; miniature pig, HQC (75 ng/ml), processed samples in autosampler for 24 h, read-out: Processed stability (24 h), Recovery (mean ± SD, %)): 105.7 ± 0.34% | recovery at 24 h, 3 ng/ml ([4]; miniature pig, LQC (3 ng/ml), processed samples in autosampler for 24 h, read-out: Processed stability (24 h), Recovery (mean ± SD, %)): 98.9 ± 1.08%
